Assay results as given in patent US20100222426A1, “Anti-Bacterial Agents” (priority 2007, published 2010).
In brackets after ≈: the same amount, converted by molar mass. Read-outs that look alike come from different tables or passages of the source.

Key:
[1] = tested on: panel of multidrug-resistant strains of Staphylococcus aureus; details: inventors' 2006 poster; cited from earlier work
[2] = tested on: S. aureus EMRSA16; test: MIC assay (MHB microtitre, MTT); type: cell-based; details: Staphylococcus aureus
[3] = tested on: M. phlei ATCC11758; test: MIC assay (MHB microtitre, MTT); type: cell-based; details: Mycolicibacterium phlei
[4] = tested on: S. aureus XU212; test: microbe, parasite or virus in culture; type: cell-based; details: Staphylococcus aureus
[5] = tested on: S. aureus RN4220; test: MIC assay (MHB microtitre, MTT); type: cell-based; details: Staphylococcus aureus
Protocol: Bacteria were cultured on nutrient agar (Oxoid) and incubated for 24 h at 37 ° C. prior to MIC determination. […] An inoculum density of 5×10^5 cfu of S. aureus was prepared in normal saline (9 g/l) by comparison with a 0.5 MacFarland turbidity standard. The inoculum (125 μl) was added to all wells and the microtitre plate was incubated at 37° C. for 18 h. For MIC determination, 20 μl of a 5 mg/ml methanolic solution of 3-[4,5-dimethylthiazol-2-yl]-2,5-diphenyltetrazolium bromide (MTT; Sigma) was added to each of the wells and incubated for 20 min. Bacterial growth was indicated by a colour change from yellow to dark blue. The MIC was recorded as the lowest concentration at which no growth was observed.

[6] = tested on: S. typhimurium L354; test: MIC assay (MHB microtitre, MTT); type: cell-based; details: Salmonella enterica
[7] = tested on: methicillin-resistant coagulase-negative Staphylococcus epidermidis; test: MIC on IsoSensitest agar / broth, clinical isolates; type: cell-based; details: in broth and agar, methicillin-resistant S. epidermidis, read-out: minimum inhibitory concentration
Protocol: (§1) Compound 7 was tested using bacteria which were recent clinical isolates, or were standard reference controls. The clinical isolates were selected to represent important resistant phenotypes currently prevalent in the UK and worldwide. They included (i) methicillin-resistant Staphylococcus aureus (MRSA), specifically the epidemic (E)MRSA-15 and 16 strains dominant in the UK; (ii) methicillin-resistant coagulase negative staphylococci (i.e. S. epidermidis, S. haemolyticus); (iii) vancomycin-resistant as well as susceptible Enterococcus faecalis and E. faecium; (iv) penicillin-resistant and—susceptible Streptococcus pneumoniae; (v) group A streptococci (=S. pyogenes, which remain universally susceptible to penicillin) and (vi) Clostridium difficile.
(§2) MICs were determined on IsoSensitest agar (ISA) (method of British Society for Antimicrobial Chemotherapy, http://www.bsac.org.uk) or by microdilution in IsoSensitest Broth (ISB). Both media were from Oxoid, Basingstoke, Hants. Plates were variously incubated, at 35-37° C., in air, air enriched with 5% CO2 or under anaerobic conditions.

[8] = tested on: vancomycin-resistant and vancomycin-sensitive Enterococcus faecalis; test: as above; type: cell-based; details: in broth and agar, vancomycin-resistant and -sensitive E. faecalis, read-out: minimum inhibitory concentration
Protocol: as §1, §2

[9] = tested on: methicillin-sensitive coagulase-negative Staphylococcus epidermidis; test: as above; type: cell-based; details: in broth and agar, methicillin-sensitive S. epidermidis, read-out: minimum inhibitory concentration
Protocol: as §1, §2

[10] = tested on: penicillin-resistant and penicillin-sensitive Streptococcus pneumoniae; test: as above; type: cell-based; details: in broth and agar, penicillin-resistant and -sensitive S. pneumoniae, read-out: minimum inhibitory concentration
Protocol: as §1, §2

[11] = tested on: methicillin-sensitive Staphylococcus aureus; test: as above; type: cell-based; details: in broth and agar, methicillin-sensitive S. aureus, read-out: minimum inhibitory concentration
Protocol: as §1, §2

[12] = tested on: vancomycin-resistant and vancomycin-sensitive Enterococcus faecium; test: as above; type: cell-based; details: in broth and agar, vancomycin-resistant and -sensitive E. faecium, read-out: minimum inhibitory concentration
Protocol: as §1, §2

[13] = tested on: methicillin-sensitive coagulase-negative Staphylococcus haemolyticus; test: as above; type: cell-based; details: in broth and agar, methicillin-sensitive S. haemolyticus, read-out: minimum inhibitory concentration
Protocol: as §1, §2

[14] = tested on: epidemic methicillin-resistant Staphylococcus aureus 15 and 16; test: as above; type: cell-based; details: in broth and agar, EMRSA-15 and 16 clinical isolates, read-out: minimum inhibitory concentration
Protocol: as §1, §2

[15] = tested on: M. fortuitum ATCC6841; test: MIC assay (MHB microtitre, MTT); type: cell-based; details: Mycolicibacterium fortuitum
[16] = tested on: P. aeruginosa K1119; test: MIC assay (MHB microtitre, MTT); type: cell-based; details: Pseudomonas aeruginosa
[17] = tested on: M. smegmatis ATCC14468; test: MIC assay (MHB microtitre, MTT); type: cell-based; details: Mycolicibacterium smegmatis
[18] = tested on: S. aureus ATCC25923; test: MIC assay (MHB microtitre, MTT); type: cell-based; details: Staphylococcus aureus
[19] = tested on: NCTC6571 Staphylococcus aureus; test: MIC on IsoSensitest agar / broth, standard laboratory strain; type: cell-based; details: in broth and agar, read-out: minimum inhibitory concentration
Protocol: as §1, §2

[20] = tested on: Streptococcus pneumoniae; test: as above; type: cell-based; details: ATCC29212; in broth and agar; Streptococcus pneumoniae ATCC 29212; read-out: minimum inhibitory concentration
Protocol: as §1, §2

[21] = tested on: Enterococcus faecalis ATCC29212; test: as above; type: cell-based; details: in broth and agar, read-out: minimum inhibitory concentration
Protocol: as §1, §2

[22] = tested on: P. aeruginosa K767; test: MIC assay (MHB microtitre, MTT); type: cell-based; details: Pseudomonas aeruginosa
[23] = tested on: Group A Streptococcus; test: MIC on IsoSensitest agar / broth, clinical isolates; type: cell-based, S. pyogenes; details: in broth and agar, read-out: minimum inhibitory concentration
Protocol: as §1, §2

[24] = tested on: M. smegmatis MC2 2700; test: MIC assay (MHB microtitre, MTT); type: cell-based; details: Mycolicibacterium smegmatis, MC22700
[25] = tested on: S. typhimurium L10; test: MIC assay (MHB microtitre, MTT); type: cell-based; details: Salmonella enterica
[26] = tested on: S. aureus EMRSA15; test: MIC assay (MHB microtitre, MTT); type: cell-based; details: Staphylococcus aureus
[27] = tested on: S. aureus SA1199B; test: MIC assay (MHB microtitre, MTT); type: cell-based; details: Staphylococcus aureus
[28] = tested on: MRSA and penicillin-resistant Staphylococcus aureus; details: cited from earlier work
[29] = has to be stabilised as a salt; cited from earlier work

## O=c1c2cc(O)ccc2oc2cccc(O)c12 [1,7-dihydroxyxanthone]
[1]
  minimum inhibitory concentration: 128 to 256 mg/L

## CCC(C)C(=O)c1c(O)cc(O)cc1OC/C=C(\C)CCC=C(C)C (centres unmarked) [Compound 7]
[2]
  MIC: 1 mg/L (≈ 2.89 µM)
[3]
  MIC: 4 mg/L (≈ 11.5 µM)
[4]
  MIC: 1 mg/L (≈ 2.89 µM)
[5]
  MIC: 1 mg/L (≈ 2.89 µM)
[6]
  MIC: > 512 mg/L
[7]
  MIC: 2 to 8 mg/L (≈ 5.77 to 23.1 µM)
[8]
  MIC: 4 mg/L (≈ 11.5 µM)
[9]
  MIC: 2 to 4 mg/L (≈ 5.77 to 11.5 µM)
[10]
  MIC: 2 to 4 mg/L (≈ 5.77 to 11.5 µM)
[11]
  MIC: 2 to 8 mg/L (≈ 5.77 to 23.1 µM)
[12]
  MIC: 2 to 4 mg/L (≈ 5.77 to 11.5 µM)
[13]
  MIC: 16 mg/L (≈ 46.2 µM)
[14]
  MIC: 2 to 4 mg/L (≈ 5.77 to 11.5 µM)
[15]
  MIC: 8 mg/L (≈ 23.1 µM)
[16]
  MIC: > 512 mg/L
[17]
  MIC: 4 mg/L (≈ 11.5 µM)
[18]
  MIC: 1 mg/L (≈ 2.89 µM)
[19]
  MIC: 4 mg/L (≈ 11.5 µM)
[20]
  MIC: 4 mg/L (≈ 11.5 µM)
[21]
  MIC: 4 mg/L (≈ 11.5 µM)
[22]; K767
  MIC: > 512 mg/L
[23]
  MIC: 4 mg/L (≈ 11.5 µM)
[24]
  MIC: 4 mg/L (≈ 11.5 µM)
[25]
  MIC: > 512 mg/L
[26]
  MIC: 0.5 mg/L (≈ 1.44 µM)
[27]
  MIC: 1 mg/L (≈ 2.89 µM)

## CC[C@H]1OC(=O)[C@H](C)[C@@H](O[C@H]2C[C@@](C)(OC)[C@@H](O)[C@H](C)O2)[C@H](C)[C@@H](O[C@@H]2O[C@H](C)C[C@H](N(C)C)[C@H]2O)[C@](C)(O)C[C@@H](C)C(=O)[C@H](C)[C@@H](O)[C@]1(C)O [Erythromycin, erythromycin, reference compound]
[5]
  MIC: 128 mg/L (≈ 174 µM)

## CC[C@@H](CO)NCCN[C@@H](CC)CO [Ethambutol]
[3]
  MIC: 0.5 mg/L (≈ 2.45 µM)
[15]
  MIC: 0.5 mg/L (≈ 2.45 µM)
[17]
  MIC: 0.5 mg/L (≈ 2.45 µM)
[24]
  MIC: 0.5 mg/L (≈ 2.45 µM)

## CC(C)=CCC[C@]1(C)[C@@H](CC=C(C)C)C[C@@]2(CC=C(C)C)C(=O)[C@]1(C(=O)C(C)C)C(=O)C(CC=C(C)C)=C2O [Hyperforin]
[28]
  Minimum Inhibitory Concentration (MIC): 0.1 to 0.5 mg/L
[29]
  stability: unstable

## NNC(=O)c1ccncc1 [Isoniazid]
[3]
  MIC: 2 mg/L (≈ 14.6 µM)
[15]
  MIC: 4 mg/L (≈ 29.2 µM)
[17]
  MIC: 2 mg/L (≈ 14.6 µM)
[24]
  MIC: 2 mg/L (≈ 14.6 µM)

## CCn1cc(C(=O)O)c(=O)c2cc(F)c(N3CCNCC3)cc21 [Norfloxacin, norfloxacin, reference compound]
[16]
  MIC: 2 mg/L (≈ 6.26 µM)
[18]
  MIC: 1 mg/L (≈ 3.13 µM)
[22]; P. aeruginosa K767, read-out: MIC
  MIC: 2 mg/L (≈ 6.26 µM)
[27]
  MIC: 32 mg/L (≈ 100 µM)

## Cc1onc(-c2ccccc2)c1C(=O)N[C@@H]1C(=O)N2[C@@H]1SC(C)(C)[C@@H]2C(=O)O [Oxacillin, reference compound]
[2]
  MIC: 512 mg/L (≈ 1280 µM)
[26]
  MIC: 16 mg/L (≈ 39.9 µM)
